pIC50: −log10 of the molar value.

T1 sequence (Q8NI77 1-467): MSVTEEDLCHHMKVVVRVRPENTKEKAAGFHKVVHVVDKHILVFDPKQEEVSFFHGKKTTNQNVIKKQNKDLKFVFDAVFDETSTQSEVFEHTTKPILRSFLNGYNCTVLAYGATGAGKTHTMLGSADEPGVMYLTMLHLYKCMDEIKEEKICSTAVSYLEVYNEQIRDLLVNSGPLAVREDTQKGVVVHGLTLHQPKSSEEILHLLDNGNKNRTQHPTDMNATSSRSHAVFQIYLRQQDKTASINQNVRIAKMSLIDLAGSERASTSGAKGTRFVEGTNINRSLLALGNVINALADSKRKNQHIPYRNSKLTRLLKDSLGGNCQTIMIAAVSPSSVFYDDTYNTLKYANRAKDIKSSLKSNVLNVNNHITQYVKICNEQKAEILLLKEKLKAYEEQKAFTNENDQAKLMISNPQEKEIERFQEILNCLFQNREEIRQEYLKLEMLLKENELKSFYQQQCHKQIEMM
T1 sequence (P02550 whole entry partner): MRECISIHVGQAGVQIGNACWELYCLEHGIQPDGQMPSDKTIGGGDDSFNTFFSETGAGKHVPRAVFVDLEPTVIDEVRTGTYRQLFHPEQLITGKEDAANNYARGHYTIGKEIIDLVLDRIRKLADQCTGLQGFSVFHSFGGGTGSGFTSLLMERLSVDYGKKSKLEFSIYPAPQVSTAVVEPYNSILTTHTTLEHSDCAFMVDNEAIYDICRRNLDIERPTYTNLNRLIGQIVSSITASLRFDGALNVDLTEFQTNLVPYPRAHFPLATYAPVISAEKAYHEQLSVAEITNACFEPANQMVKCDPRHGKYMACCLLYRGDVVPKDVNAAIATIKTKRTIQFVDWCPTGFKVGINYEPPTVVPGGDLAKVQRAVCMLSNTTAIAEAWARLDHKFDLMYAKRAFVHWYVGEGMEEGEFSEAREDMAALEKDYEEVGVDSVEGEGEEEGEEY
T1 sequence (P02554 whole entry partner): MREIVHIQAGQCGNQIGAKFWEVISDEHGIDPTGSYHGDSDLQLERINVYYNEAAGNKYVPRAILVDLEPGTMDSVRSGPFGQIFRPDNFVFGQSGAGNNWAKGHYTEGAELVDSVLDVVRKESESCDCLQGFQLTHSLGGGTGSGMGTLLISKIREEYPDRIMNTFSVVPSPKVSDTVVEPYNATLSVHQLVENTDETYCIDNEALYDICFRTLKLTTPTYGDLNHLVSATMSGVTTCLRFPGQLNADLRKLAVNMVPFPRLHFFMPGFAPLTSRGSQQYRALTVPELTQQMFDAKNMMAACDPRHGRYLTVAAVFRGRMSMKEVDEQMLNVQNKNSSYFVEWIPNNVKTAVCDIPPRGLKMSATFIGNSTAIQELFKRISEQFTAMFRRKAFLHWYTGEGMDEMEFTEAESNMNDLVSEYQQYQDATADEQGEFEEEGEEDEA

This assay has as its target T1, Recombinant human KIF18A (1-467 His-tagged) protein (Homo sapiens, UniProt Q8NI77).
T1 construct: Recombinant human KIF18A (1-467 His-tagged) protein; His; made in house
As to the kind of experiment: KIF18A Enzyme Assay: microtubule-stimulated ATPase activity (ADP-Glo). In kind it is biochemical. As to conditions: 30 nM KIF18A, 75 μM ATP. An outline of the steps: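 Recombinant human KIF18A (1-467, His-tagged), baculovirus-expressed, assayed for microtubule-stimulated ATPase activity; ADP formed detected by ADP-Glo luminescence. Compounds tested as 22-point 2-fold serial dilutions in DMSO. IC50 from four-parameter logistic fit.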
(In general: ADP-Glo first removes unused ATP, then detects ADP through luciferase.)
As for `O=C(Nc1cccc(S(=O)(=O)C2CCCC2)c1)c1ccc(N2CC(CO)C2)nc1N1CCC2(CC1)CC2` [Example 103-20, N-(3-(cyclopentylsulfonyl)phenyl)-6-(3-(hydroxymethyl)azetidin-1-yl)-2-(6-azaspiro[2.5]octan-6-yl)nicotinamide], the negative-log IC50 (pIC50) (in general, −log10 of the IC50, conventionally taken in molar units) is 6.85.

For `O=C(Nc1cccc(S(=O)(=O)C2CCCC2)c1)c1ccc(N2CC(O)C2)nc1N1CCC2(CC1)CC2` [Example 103-21, N-(3-(cyclopentylsulfonyl)phenyl)-6-(3-hydroxyazetidin-1-yl)-2-(6-azaspiro[2.5]octan-6-yl)nicotinamide], the pIC50 was 6.93.

In the case of `CN(C)CCNc1ccc(C(=O)Nc2cccc(S(=O)(=O)C3CCCC3)c2)c(N2CCC3(CC2)CC3)n1` [Example 103-22, N-(3-(cyclopentylsulfonyl)phenyl)-6-((2-(dimethylamino)ethyl)amino)-2-(6-azaspiro[2.5]octan-6-yl)nicotinamide], the pIC50 is 6.17.

Regarding `CCNc1ccc(C(=O)Nc2cccc(S(=O)(=O)C3CCCC3)c2)c(N2CCC3(CCC3)CC2)n1` [Example 103-23, N-(3-(cyclopentylsulfonyl)phenyl)-6-(ethylamino)-2-(7-azaspiro[3.5]nonan-7-yl)nicotinamide], the pIC50 is 7.01.

As for `O=C(Nc1cccc(S(=O)(=O)C2CCCC2)c1)c1ccc(NCCO)nc1N1CCC2(CCC2)CC1` [Example 103-24, N-(3-(cyclopentylsulfonyl)phenyl)-6-((2-hydroxyethyl)amino)-2-(7-azaspiro[3.5]nonan-7-yl)nicotinamide], the pIC50 is 7.44.

With `O=C(Nc1cccc(S(=O)(=O)C2CCCC2)c1)c1ccc(NC2(CO)CC2)nc1N1CCC2(CCC2)CC1` [Example 103-25, N-(3-(cyclopentylsulfonyl)phenyl)-6-((1-(hydroxymethyl)cyclopropyl)amino)-2-(7-azaspiro[3.5]nonan-7-yl)nicotinamide], the pIC50 was 7.42.

For `O=C(Nc1cccc(S(=O)(=O)C2CCCC2)c1)c1ccc(N2CCC2)nc1N1CCC2(CCC2)CC1` [Example 103-26, 6-(azctidin-1-yl)-N-(3-(cyclopentylsulfonyl)phenyl)-2-(7-azaspiro[3.5]nonan-7-yl)nicotinamide], the negative logarithm of the IC50 (pIC50) is 6.85.

`O=C(Nc1cccc(S(=O)(=O)C2CCCC2)c1)c1ccc(N2CCOCC2)nc1N1CCC2(CCC2)CC1` [Example 103-27, N-(3-(cyclopentylsulfonyl)phenyl)-6-morpholino-2-(7-azaspiro[3.5]nonan-7-yl)nicotinamide]: the pIC50 was 6.16.

Take `CC(C)(C)NS(=O)(=O)c1cccc(NC(=O)c2ccc(NC(C)(C)CCO)nc2N2CCC3(CC2)CC3)c1` [Example 103-28, N-(3-(N-(tert-butyl)sulfamoyl)phenyl)-6-((4-hydroxy-2-methylbutan-2-yl)amino)-2-(6-azaspiro[2.5]octan-6-yl)nicotinamide]: the negative logarithm of the IC50 (pIC50) was 7.10.

As for `O=C(Nc1cccc(S(=O)(=O)C2CCCC2)c1)c1ccc(OC2COC2)nc1N1CCC2(CC1)CC2` [Example 104, N-(3-(cyclopentylsulfonyl)phenyl)-6-(oxctan-3-yloxy)-2-(6-azaspiro[2.5]octan-6-yl)nicotinamide], the negative-log IC50 (pIC50) is 6.53.

With `COc1ccc(C(=O)Nc2cccc(S(=O)(=O)C3CCCC3)c2)c(N2CCC3(CC2)CC3)n1` [Example 104-1, N-(3-(cyclopentylsulfonyl)phenyl)-6-methoxy-2-(6-azaspiro[2.5]octan-6-yl)nicotinamide], the negative logarithm of the IC50 (pIC50) was 6.58.

With `CC(C)(CO)Nc1ccc(C(=O)Nc2cccc(S(=O)(=O)C3(C)CCC3)c2)c(N2CCC3(CC2)CC3)n1` [Example 105-1, 6-((1-hydroxy-2-methylpropan-2-yl)amino)-N-(3-((1-methylcyclobutyl)sulfonyl)phenyl)-2-(6-azaspiro[2.5]octan-6-yl)nicotinamide], the negative-log IC50 (pIC50) was 7.11.

As to `CC(C)(CO)Nc1ccc(C(=O)Nc2cccc(S(=O)(=O)C(C)(C)C)c2)c(N2CCC3(CC2)CC3)n1` [Example 105-2, N-(3-(tert-butylsulfonyl)phenyl)-6-((1-hydroxy-2-methylpropan-2-yl)amino)-2-(6-azaspiro[2.5]octan-6-yl)nicotinamide], the pIC50 was 7.10.

As for `CC(C)(CO)Nc1ccc(C(=O)Nc2cccc(S(=O)(=O)C(C)(C)C(F)(F)F)c2)c(N2CCC3(CC2)CC3)n1` [Example 105-3, 6-((1-hydroxy-2-methylpropan-2-yl)amino)-2-(6-azaspiro[2.5]octan-6-yl)-N-(3-((1,1,1-trifluoro-2-methylpropan-2-yl)sulfonyl)phenyl)nicotinamide], the pIC50 was 6.68.

With `CC(C)CS(=O)(=O)c1cccc(NC(=O)c2ccc(NC(C)(C)CO)nc2N2CCC3(CC2)CC3)c1` [Example 105-4, 6-((1-hydroxy-2-methylpropan-2-yl)amino)-N-(3-(isobutylsulfonyl)phenyl)-2-(6-azaspiro[2.5]octan-6-yl)nicotinamide], the pIC50 is 7.38.

For the compound `CC(C)(CO)Nc1ccc(C(=O)Nc2cccc(S(=O)(=O)C(F)(F)F)c2)c(N2CCC3(CC2)CC3)n1` [Example 105-5, 6-((1-hydroxy-2-methylpropan-2-yl)amino)-2-(6-azaspiro[2.5]octan-6-yl)-N-(3-((trifluoromethyl)sulfonyl)phenyl)nicotinamide], the pIC50 is 6.73.

Turning to `CC(C)(CO)Nc1ccc(C(=O)Nc2cccc(S(=O)(=O)C3CCC3)c2)c(N2CCC3(CC2)CC3)n1` [Example 105-6, N-(3-(cyclobutylsulfonyl)phenyl)-6-((1-hydroxy-2-methylpropan-2-yl)amino)-2-(6-azaspiro[2.5]octan-6-yl)nicotinamide], the pIC50 is 7.55.

In the case of `Cc1ccc(NC(=O)c2ccc(NC(C)(C)CO)nc2N2CCC3(CC2)CC3)cc1S(=O)(=O)C1CCCC1` [Example 105-8, N-(3-(cyclopentylsulfonyl)-4-methylphenyl)-6-((1-hydroxy-2-methylpropan-2-yl)amino)-2-(6-azaspiro[2.5]octan-6-yl)nicotinamide], the pIC50 was 7.26.

As for `Cc1ccc(NC(=O)c2ccc(NC(C)(C)CO)nc2N2CCC3(CCC3)CC2)cc1S(=O)(=O)C1CCCC1` [Example 105-9, N-(3-(cyclopentylsulfonyl)-4-methylphenyl)-6-((1-hydroxy-2-methylpropan-2-yl)amino)-2-(7-azaspiro[3.5]nonan-7-yl)nicotinamide], the pIC50 was 7.17.

For `Cc1ccc(NC(=O)c2ccc(NC3(CO)CC3)nc2N2CCC3(CC2)CC3)cc1S(=O)(=O)C1CCCC1` [Example 105-10, N-(3-(cyclopentylsulfonyl)-4-methylphenyl)-6-((1-(hydroxymethyl)cyclopropyl)amino)-2-(6-azaspiro[2.5]octan-6-yl)nicotinamide], the pIC50 was 7.24.

`CC(C)(C)NS(=O)(=O)c1cccc(NC(=O)c2ccc(NC3(CO)CC3)nc2N2CCC3(CC2)CC3)c1` [Example 105-11, N-(3-(N-(tert-butyl)sulfamoyl)phenyl)-6-((1-(hydroxymethyl)cyclopropyl)amino)-2-(6-azaspiro[2.5]octan-6-yl)nicotinamide]: the pIC50 is 7.03.

Consider `CC1(NS(=O)(=O)c2cccc(NC(=O)c3ccc(NC4(CO)CC4)nc3N3CCC4(CC3)CC4)c2)CCC1` [Example 105-12, 6-((1-(hydroxymethyl)cyclopropyl)amino)-N-(3-(N-(1-methylcyclobutyl)sulfamoyl)phenyl)-2-(6-azaspiro[2.5]octan-6-yl)nicotinamide], for which the pIC50 is 6.98.

As for `CC(C)(CO)Nc1ccc(C(=O)Nc2cccc(S(=O)(=O)NC3(C)CCC3)c2)c(N2CCC3(CC2)CC3)n1` [Example 105-13, 6-((1-hydroxy-2-methylpropan-2-yl)amino)-N-(3-(N-(1-methylcyclobutyl)sulfamoyl)phenyl)-2-(6-azaspiro[2.5]octan-6-yl)nicotinamide], the negative-log IC50 (pIC50) is 7.25.

As for `CC(C)(CO)Nc1ccc(C(=O)Nc2cccc(S(=O)(=O)NC3CC3)c2)c(N2CCC3(CC2)CC3)n1` [Example 105-14, N-(3-(N-cyclopropylsulfamoyl)phenyl)-6-((1-hydroxy-2-methylpropan-2-yl)amino)-2-(6-azaspiro[2.5]octan-6-yl)nicotinamide], the pIC50 was 7.48.

Turning to `O=C(Nc1cccc(S(=O)(=O)NC2CC2)c1)c1ccc(NC2(CO)CC2)nc1N1CCC2(CC1)CC2` [Example 105-15, N-(3-(N-cyclopropylsulfamoyl)phenyl)-6-((1-(hydroxymethyl)cyclopropyl)amino)-2-(6-azaspiro[2.5]octan-6-yl)nicotinamide], the negative logarithm of the IC50 (pIC50) is 6.10.

Take `Cc1ccc(NC(=O)c2ccc(NC(C)(C)CO)nc2N2CCC3(CC2)CC3)cc1S(=O)(=O)NC(C)(C)C` [Example 105-16, N-(3-(N-(tert-butyl)sulfamoyl)-4-methylphenyl)-6-((1-hydroxy-2-methylpropan-2-yl)amino)-2-(6-azaspiro[2.5]octan-6-yl)nicotinamide]: the negative-log IC50 (pIC50) was 6.92.

With `CC(C)(C)NS(=O)(=O)c1cc(NC(=O)c2ccc(NC(C)(C)CO)nc2N2CCC3(CC2)CC3)ccc1F` [Example 105-17, N-(3-(N-(tert-butyl)sulfamoyl)-4-fluorophenyl)-6-((1-hydroxy-2-methylpropan-2-yl)amino)-2-(6-azaspiro[2.5]octan-6-yl)nicotinamide], the negative-log IC50 (pIC50) is 6.94.

Consider `Cc1cc(NC(=O)c2ccc(NC(C)(C)CO)nc2N2CCC3(CC2)CC3)cc(S(=O)(=O)NC(C)(C)C)c1` [Example 105-18, N-(3-(N-(tert-butyl)sulfamoyl)-5-methylphenyl)-6-((1-hydroxy-2-methylpropan-2-yl)amino)-2-(6-azaspiro[2.5]octan-6-yl)nicotinamide], for which the negative logarithm of the IC50 (pIC50) was 6.91.

For `CC(C)(C)NS(=O)(=O)c1cc(NC(=O)c2ccc(NC(C)(C)CO)nc2N2CCC3(CC2)CC3)ccc1Cl` [Example 105-19, N-(3-(N-(tert-butyl)sulfamoyl)-4-chlorophenyl)-6-((1-hydroxy-2-methylpropan-2-yl)amino)-2-(6-azaspiro[2.5]octan-6-yl)nicotinamide], the pIC50 is 7.15.
